These results are taken from ChEMBL document CHEMBL1150323, “Peptomeric analogues of trypsin inhibitor SFTI-1 isolated from sunflower seeds” (Bioorg Med Chem, 2008).

Activity calls are given as the source filed them. Positions of bridges follow the written chain, without caps; N, C: chain ends. Non-standard residues stand in square brackets, D forms with d. Residues, ends and D or L forms follow the SMILES beside them. Nphe = O=C(O)CNCc1ccccc1; Abu = CC[C@H](N)C(=O)O; Nlys = NCCCCNCC(=O)O

The species named for series [1] is Bos taurus. The experiment in a line: Inhibition of bovine alpha chymotrypsin assessed as residual activity after 40 mins by spectrophotometry.
The species entered for series [2] is Bos taurus. The series can be described thus: Inhibition of bovine alpha chymotrypsin assessed as residual activity by spectrophotometry.
A short description of series [3]: Proteolytic stability assessed as half life of trypsin-mediated hydrolysis by RP-HPLC. The class given is ADME.
The species named for series [4] is Bos taurus. The experiment in a line: Inhibition of bovine alpha chymotrypsin assessed as residual activity after 3 hrs by spectrophotometry.
Series [5] can be described thus: Proteolytic stability assessed as trypsin-mediated hydrolysis at pH 8.3 after 24 hrs by RP-HPLC. The series is classed as ADME. Particulars: read-out: Activity.
For series [6], the target named is T1, Serine protease 1 (Bos taurus) (UniProt P00760).
T1 sequence (whole entry): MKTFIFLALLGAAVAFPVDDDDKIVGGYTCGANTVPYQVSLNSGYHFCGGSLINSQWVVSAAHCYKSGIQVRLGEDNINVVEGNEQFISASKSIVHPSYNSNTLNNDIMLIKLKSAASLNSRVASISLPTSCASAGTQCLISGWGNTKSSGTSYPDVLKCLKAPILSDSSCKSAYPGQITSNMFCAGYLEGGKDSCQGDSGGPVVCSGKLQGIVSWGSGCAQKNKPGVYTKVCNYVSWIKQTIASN
The series can be described thus: Inhibition of bovine beta trypsin assessed as residual activity by spectrophotometry.

In series [7] the target is T1, Serine protease 1 (Bos taurus). The experiment in a line: Inhibition of bovine beta trypsin assessed as residual activity after 40 mins by spectrophotometry.
Series [8] has the same target. The experiment in a line: Inhibition of bovine beta trypsin assessed as residual activity after 60 mins by spectrophotometry.

For `CC[C@@H]1NC(=O)[C@H](CCCNC(=N)N)NC(=O)CNC(=O)[C@H](CC(=O)O)NC(=O)[C@@H]2CCCN2C(=O)[C@H](Cc2ccccc2)NC(=O)[C@H](CC)NC(=O)[C@H]([C@@H](C)CC)NC(=O)[C@@H]2CCCN2C(=O)[C@@H]2CCCN2C(=O)[C@H]([C@@H](C)CC)NC(=O)[C@H](CO)NC(=O)CN(Cc2ccccc2)C(=O)[C@H]([C@H](C)O)NC1=O`, the Ka in the series listed under Bos taurus [1] came out at 6.2 ×10⁷ /M.
On to `CC[C@H](C)[C@@H]1NC(=O)[C@@H]2CCCN2C(=O)[C@@H]2CCCN2C(=O)[C@H]([C@@H](C)CC)NC(=O)[C@H](CO)NC(=O)[C@H](Cc2ccccc2)NC(=O)[C@H]([C@@H](C)O)NC(=O)[C@@H](NC(=O)[C@H](CCCNC(=N)N)NC(=O)CN)CSSC[C@@H](C(=O)N[C@@H](Cc2ccccc2)C(=O)N2CCC[C@H]2C(=O)N[C@@H](CC(=O)O)C(=O)O)NC1=O` (H-GRCTFSIPPICFPD-OH; disulfide 3-11), for which the Ka in the series listed under Bos taurus [2] stood at 2 ×10⁹ /M. In addition, the half-life (usually the time needed for the level to fall by half in the phase considered) in series [3] worked out at 3.03 h.
For the compound `CC[C@@H]1NC(=O)[C@H](CCCNC(=N)N)NC(=O)CNC(=O)[C@H](CC(=O)O)NC(=O)[C@@H]2CCCN2C(=O)[C@H](Cc2ccccc2)NC(=O)[C@H](CC)NC(=O)[C@H]([C@@H](C)CC)NC(=O)[C@@H]2CCCN2C(=O)[C@@H]2CCCN2C(=O)[C@H]([C@@H](C)CC)NC(=O)[C@H](CO)NC(=O)[C@H](Cc2ccccc2)NC(=O)[C@H]([C@@H](C)O)NC1=O` (cyclo([Abu]FPDGR[Abu]TFSIPPI)), the Ka in the series listed under Bos taurus [4] was 1.1 ×10¹⁰ /M. Also, the metabolised at 24 h in series [5] amounted to 30%. Also, the half-life in series [3] stood at 5.9 h.
Turning to `CC[C@H](C)[C@@H]1NC(=O)[C@@H]2CCCN2C(=O)[C@@H]2CCCN2C(=O)[C@H]([C@@H](C)CC)NC(=O)[C@H](CO)NC(=O)[C@H](CCCCN)NC(=O)[C@H]([C@@H](C)O)NC(=O)[C@@H]2CSSC[C@H](NC1=O)C(=O)N[C@@H](Cc1ccccc1)C(=O)N1CCC[C@H]1C(=O)N[C@@H](CC(=O)O)C(=O)NCC(=O)N[C@@H](CCCNC(=N)N)C(=O)N2`, in the series listed under Bos taurus [2], the Ka stood at 4.9 ×10⁶ /M. Besides, in series [3], the half-life turned out to be 7.25 h.
In the case of `CC[C@H](C)[C@@H]1NC(=O)[C@@H]2CCCN2C(=O)[C@@H]2CCCN2C(=O)[C@H]([C@@H](C)CC)NC(=O)[C@H](CO)NC(=O)CN(Cc2ccccc2)C(=O)[C@H]([C@@H](C)O)NC(=O)[C@@H](NC(=O)[C@H](CCCNC(=N)N)NC(=O)CN)CSSC[C@@H](C(=O)N[C@@H](Cc2ccccc2)C(=O)N2CCC[C@H]2C(=O)N[C@@H](CC(=O)O)C(=O)O)NC1=O` (H-GRCT[Nphe]SIPPICFPD-OH; disulfide 3-11), the Ka in the series filed under Bos taurus [2] was found to be 3.8 ×10⁸ /M.
In the case of `CC[C@H](C)[C@@H]1NC(=O)[C@@H]2CCCN2C(=O)[C@@H]2CCCN2C(=O)[C@H]([C@@H](C)CC)NC(=O)[C@H](CO)NC(=O)[C@H](CCCCN)NC(=O)[C@H]([C@@H](C)O)NC(=O)[C@@H](NC(=O)[C@H](CCCNC(=N)N)NC(=O)CN)CSSC[C@@H](C(=O)N[C@@H](Cc2ccccc2)C(=O)N2CCC[C@H]2C(=O)N[C@@H](CC(=O)O)C(=O)O)NC1=O`, the Ka in the series filed under Bos taurus [2] was found to be 4.9 ×10⁶ /M; in series [6], 9.9 ×10⁹ /M. The half-life in series [3] turned out to be 2.75 h.
Turning to `CC[C@H](C)[C@@H]1NC(=O)[C@@H]2CCCN2C(=O)[C@@H]2CCCN2C(=O)[C@H]([C@@H](C)CC)NC(=O)[C@H](CO)NC(=O)CN(CCCCN)C(=O)[C@H]([C@H](C)O)NC(=O)[C@@H](NC(=O)[C@@H](N)CCCCN)CSSC[C@@H](C(=O)N[C@@H](Cc2ccccc2)C(=O)N2CCC[C@H]2C(=O)N[C@@H](CC(=O)O)C(=O)O)NC1=O`, the Ka in series [7] turned out to be 8 ×10⁷ /M.
For the compound `CC[C@H](NC(=O)[C@@H](NC(=O)[C@@H]1CCCN1C(=O)[C@@H]1CCCN1C(=O)[C@@H](NC(=O)[C@H](CO)NC(=O)CN(CCCCN)C(=O)[C@@H](NC(=O)[C@H](CC)NC(=O)[C@@H](N)CCCCN)[C@H](C)O)[C@@H](C)CC)[C@@H](C)CC)C(=O)N[C@@H](Cc1ccccc1)C(=O)N1CCC[C@H]1C(=O)N[C@@H](CC(=O)O)C(=O)O`, in series [6], the result was inactive.
In the case of `CC[C@H](NC(=O)[C@H](CCCNC(=N)N)NC(=O)CN)C(=O)N[C@H](C(=O)N(CCCCN)CC(=O)N[C@@H](CO)C(=O)N[C@H](C(=O)N1CCC[C@H]1C(=O)N1CCC[C@H]1C(=O)N[C@H](C(=O)N[C@@H](CC)C(=O)N[C@@H](Cc1ccccc1)C(=O)N1CCC[C@H]1C(=O)N[C@@H](CC(=O)O)C(=O)O)[C@@H](C)CC)[C@@H](C)CC)[C@@H](C)O` (H-GR[Abu]T[Nlys]SIPPI[Abu]FPD-OH), in series [3], the half-life amounted to 1.1 h.
Consider `CC[C@H](NC(=O)[C@H](CCCNC(=N)N)NC(=O)CN)C(=O)N[C@H](C(=O)N[C@@H](Cc1ccccc1)C(=O)N[C@@H](CO)C(=O)N[C@H](C(=O)N1CCC[C@H]1C(=O)N1CCC[C@H]1C(=O)N[C@H](C(=O)N[C@@H](CC)C(=O)N[C@@H](Cc1ccccc1)C(=O)N1CCC[C@H]1C(=O)N[C@@H](CC(=O)O)C(=O)O)[C@@H](C)CC)[C@@H](C)CC)[C@H](C)O`, for which the result in the series filed under Bos taurus [2] was inactive.
For `CC[C@H](NC(=O)[C@H](CCCNC(=N)N)NC(=O)CN)C(=O)N[C@H](C(=O)N(CC(=O)N[C@@H](CO)C(=O)N[C@H](C(=O)N1CCC[C@H]1C(=O)N1CCC[C@H]1C(=O)N[C@H](C(=O)N[C@@H](CC)C(=O)N[C@@H](Cc1ccccc1)C(=O)N1CCC[C@H]1C(=O)N[C@@H](CC(=O)O)C(=O)O)[C@@H](C)CC)[C@@H](C)CC)Cc1ccccc1)[C@H](C)O`, the Ka in the series filed under Bos taurus [1] was found to be 7 ×10⁷ /M.
`CC[C@@H]1NC(=O)[C@H](CCCNC(=N)N)NC(=O)CNC(=O)[C@H](CC(=O)O)NC(=O)[C@@H]2CCCN2C(=O)[C@H](Cc2ccccc2)NC(=O)[C@H](CC)NC(=O)[C@H]([C@@H](C)CC)NC(=O)[C@@H]2CCCN2C(=O)[C@@H]2CCCN2C(=O)[C@H]([C@@H](C)CC)NC(=O)[C@H](CO)NC(=O)CN(CCCCN)C(=O)[C@H]([C@@H](C)O)NC1=O`: in series [3], the half-life worked out at 1.37 h.
As to `CC[C@H](C)[C@@H]1NC(=O)[C@@H]2CCCN2C(=O)[C@@H]2CCCN2C(=O)[C@H]([C@@H](C)CC)NC(=O)[C@H](CO)NC(=O)CN(CCCCN)C(=O)[C@H]([C@@H](C)O)NC(=O)[C@@H](NC(=O)[C@H](CCCNC(=N)N)NC(=O)CN)CSSC[C@@H](C(=O)N[C@@H](Cc2ccccc2)C(=O)N2CCC[C@H]2C(=O)N[C@@H](CC(=O)O)C(=O)O)NC1=O`, the Ka in series [6] amounted to 1 ×10⁸ /M.
Consider `CC[C@H](NC(=O)[C@H](CCCNC(=N)N)NC(=O)CN)C(=O)N[C@H](C(=O)N[C@@H](Cc1ccccc1)C(=O)N[C@@H](CO)C(=O)N[C@H](C(=O)N1CCC[C@H]1C(=O)N1CCC[C@H]1C(=O)N[C@H](C(=O)N[C@@H](CC)C(=O)N[C@@H](Cc1ccccc1)C(=O)N1CCC[C@H]1C(=O)N[C@@H](CC(=O)O)C(=O)O)[C@@H](C)CC)[C@@H](C)CC)[C@@H](C)O`, for which the half-life in series [3] is 1.25 h.
As for `CC[C@@H]1NC(=O)[C@H](CCCNC(=N)N)NC(=O)CNC(=O)[C@H](CC(=O)O)NC(=O)[C@@H]2CCCN2C(=O)[C@H](Cc2ccccc2)NC(=O)[C@H](CC)NC(=O)[C@H]([C@@H](C)CC)NC(=O)[C@@H]2CCCN2C(=O)[C@@H]2CCCN2C(=O)[C@H]([C@@H](C)CC)NC(=O)[C@H](CO)NC(=O)CN(Cc2ccccc2)C(=O)[C@H]([C@@H](C)O)NC1=O`, in series [3], the half-life is 5.87 h.
Regarding `CC[C@H](NC(=O)[C@H](CCCNC(=N)N)NC(=O)CN)C(=O)N[C@H](C(=O)N(CC(=O)N[C@@H](CO)C(=O)N[C@H](C(=O)N1CCC[C@H]1C(=O)N1CCC[C@H]1C(=O)N[C@H](C(=O)N[C@@H](CC)C(=O)N[C@@H](Cc1ccccc1)C(=O)N1CCC[C@H]1C(=O)N[C@@H](CC(=O)O)C(=O)O)[C@@H](C)CC)[C@@H](C)CC)Cc1ccccc1)[C@@H](C)O`, in series [5], the metabolised at 24 h is 7%.
Consider `CC[C@H](NC(=O)CNCCCCN)C(=O)N[C@H](C(=O)N(CCCCN)CC(=O)N[C@@H](CO)C(=O)N[C@H](C(=O)N1CCC[C@H]1C(=O)N1CCC[C@H]1C(=O)N[C@H](C(=O)N[C@@H](CC)C(=O)N[C@@H](Cc1ccccc1)C(=O)N1CCC[C@@H]1C(=O)N[C@@H](CC(=O)O)C(=O)O)[C@@H](C)CC)[C@@H](C)CC)[C@H](C)O`, for which the outcome in series [6] was inactive.
Take `CC[C@@H]1NC(=O)[C@H](CCCNC(=N)N)NC(=O)CNC(=O)[C@H](CC(=O)O)NC(=O)[C@@H]2CCCN2C(=O)[C@H](Cc2ccccc2)NC(=O)[C@H](CC)NC(=O)[C@H]([C@@H](C)CC)NC(=O)[C@@H]2CCCN2C(=O)[C@@H]2CCCN2C(=O)[C@H]([C@@H](C)CC)NC(=O)[C@H](CO)NC(=O)CN(CCCCN)C(=O)[C@H]([C@H](C)O)NC1=O`: the Ka in series [8] stood at 1.9 ×10⁸ /M.
